SMILES strings stand for the structures.

The assay addresses His-tagged N-terminal ATP binding domain (amino acid residues 9-236) of HSP90α (Homo sapiens, UniProt P07900). Description: HSP90 inhibitor binding potency: TRF competition binding assay. The note with it: Table I; read-out: Hsp90 IC50 Range. Put shortly: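 Competition against biotinylated radicicol for binding to the His-tagged 9-236 ATP domain of HSP90α: 2 h, room temperature, HEPES/MgCl2/KCl/BSA buffer. Streptavidin capture, then europium-labeled anti-His antibody and enhancement solution; europium counts give IC50.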
Take `COc1ccc(-c2ccccc2C2CC(=O)c3c(C)nc(N)nc3C2)c(OC)c1` (stereo not shown) [Compound 107, 2-amino-7-(2′,4′-dimethoxy-1,1′-biphenyl-2-yl)-4-methyl-7,8-dihydroquinazolin-5(6H)-one]: the concentration for half-maximal inhibition (IC50) fell in the range of 1 to 10 µM.

Turning to `COc1ccc(-c2cccnc2Cl)c(C2CC(=O)c3c(C)nc(N)nc3C2)c1` (stereo not shown) [Compound 108, 2-amino-7-[2-(2-chloropyridin-3-yl)-5-methoxyphenyl]-4-methyl-7,8-dihydroquinazolin-5(6H)-one], the IC50 is below 1 µM.

Turning to `Cc1nc(N)nc2c1C(=O)CC(c1ccccc1-c1ccccc1C(F)(F)F)C2` (stereo not shown) [Compound 109, 2-amino-4-methyl-7-[2′-(trifluoromethyl)-1,1′-biphenyl-2-yl]-7,8-dihydroquinazolin-5(6H)-one], the IC50 was below 1 µM.

As for `Cc1nc(N)nc2c1C(=O)CC(c1ccccc1-c1cccc(C(F)(F)F)c1)C2` (stereo not shown) [Compound 110, 2-amino-4-methyl-7-[3′-(trifluoromethyl)-1,1′-biphenyl-2-yl]-7,8-dihydroquinazolin-5(6H)-one], the IC50 fell in the range of 1 to 10 µM.

Take `Cc1nc(N)nc2c1C(=O)CC(c1ccccc1-c1ccccc1OC(F)(F)F)C2` (stereo not shown) [Compound 111, 2-amino-4-methyl-7-[2′-(trifluoromethoxy)-1,1′-biphenyl-2-yl]-7,8-dihydroquinazolin-5(6H)-one]: the IC50 is below 1 µM.

In the case of `Cc1nc(N)nc2c1C(=O)CC(c1ccccc1-c1cccc(OC(F)(F)F)c1)C2` (stereo not shown) [Compound 112, 2-amino-4-methyl-7-[3′-(trifluoromethoxy)-1,1′-biphenyl-2-yl]-7,8-dihydroquinazolin-5(6H)-one], the IC50 is above 10 µM.

In the case of `Cc1nc(N)nc2c1C(=O)CC(c1ccccc1-c1ccccc1Oc1ccccc1)C2` (stereo not shown) [Compound 113, 2-amino-4-methyl-7-(2′-phenoxy-1,1′-biphenyl-2-yl)-7,8-dihydroquinazolin-5(6H)-one], the IC50 was below 1 µM.

For the molecule `Cc1nc(N)nc2c1C(=O)CC(c1ccccc1-c1cccc(NS(C)(=O)=O)c1)C2` (stereo not shown) [Compound 114, N-[2′-(2-amino-4-methyl-5-oxo-5,6,7,8-tetrahydroquinazolin-7-yl)-1,1′-biphenyl-3-yl]methanesulfonamide], the 50% inhibitory concentration (IC50) lay in the range of 1 to 10 µM.

As for `Cc1nc(N)nc2c1C(=O)CC(c1ccccc1-c1cccnn1)C2` (stereo not shown) [Compound 115, 2-amino-4-methyl-7-(2-pyridazin-3-ylphenyl)-7,8-dihydroquinazolin-5(6H)-one], the concentration for half-maximal inhibition (IC50) was in the range of 1 to 10 µM.

As for `Cc1ncccc1-c1ccccc1C1CC(=O)c2c(C)nc(N)nc2C1` (stereo not shown) [Compound 116, 2-amino-4-methyl-7-[2-(2-methylpyridin-3-yl)phenyl]-7,8-dihydroquinazolin-5(6H)-one], the IC50 was below 1 µM.

Turning to `Cc1ccc(-c2ccccc2C2CC(=O)c3c(C)nc(N)nc3C2)nc1` (stereo not shown) [Compound 117, 2-amino-4-methyl-7-[2-(5-methylpyridin-2-yl)phenyl]-7,8-dihydroquinazolin-5(6H)-one], the IC50 is below 1 µM.

As to `Cc1ccnc(-c2ccccc2C2CC(=O)c3c(C)nc(N)nc3C2)c1` (stereo not shown) [Compound 118, 2-amino-4-methyl-7-[2-(4-methylpyridin-2-yl)phenyl]-7,8-dihydroquinazolin-5(6H)-one], the IC50 is below 1 µM.

On to `Cc1cccc(-c2ccccc2C2CC(=O)c3c(C)nc(N)nc3C2)n1` (stereo not shown) [Compound 119, 2-amino-4-methyl-7-[2-(6-methylpyridin-2-yl)phenyl]-7,8-dihydroquinazolin-5(6H)-one], for which the IC50 was above 10 µM.

For the molecule `Cc1cccnc1-c1ccccc1C1CC(=O)c2c(C)nc(N)nc2C1` (stereo not shown) [Compound 120, 2-amino-4-methyl-7-[2-(3-methylpyridin-2-yl)phenyl]-7,8-dihydroquinazolin-5(6H)-one], the IC50 lay in the range of 1 to 10 µM.

Regarding `Cc1ccncc1-c1ccccc1C1CC(=O)c2c(C)nc(N)nc2C1` (stereo not shown) [Compound 121, 2-amino-4-methyl-7-[2-(4-methylpyridin-3-yl)phenyl]-7,8-dihydroquinazolin-5(6H)-one], the IC50 is above 10 µM.

In the case of `Cc1nc(N)nc2c1C(=O)CC(c1ccccc1-c1cccc(F)n1)C2` (stereo not shown) [Compound 122, 2-amino-7-[2-(6-fluoropyridin-2-yl)phenyl]-4-methyl-7,8-dihydroquinazolin-5(6H)-one], the 50% inhibitory concentration (IC50) is below 1 µM.

Turning to `Cc1nc(N)nc2c1C(=O)CC(c1ccccc1-c1ccc(F)cn1)C2` (stereo not shown) [Compound 123, 2-amino-7-[2-(5-fluoropyridin-2-yl)phenyl]-4-methyl-7,8-dihydroquinazolin-5(6H)-one], the concentration for half-maximal inhibition (IC50) is below 1 µM.

In the case of `COc1cccc(-c2ccccc2C2CC(=O)c3c(C)nc(N)nc3C2)n1` (stereo not shown) [Compound 124, 2-amino-7-[2-(6-methoxypyridin-2-yl)phenyl]-4-methyl-7,8-dihydroquinazolin-5(6H)-one], the 50% inhibitory concentration (IC50) was below 1 µM.

For the molecule `COc1ccnc(-c2ccccc2C2CC(=O)c3c(C)nc(N)nc3C2)c1` (stereo not shown) [Compound 125, 2-amino-7-[2-(4-methoxy-pyridin-2-yl)-phenyl]-4-methyl-7,8-dihydro-6H-quinazolin-5-one], the IC50 was below 1 µM.

As to `Cc1cccc(-c2ccccc2C2CC(=O)c3c(C)nc(N)nc3C2)c1F` (stereo not shown) [Compound 126, 2-amino-7-(2′-fluoro-3′-methyl-1,1′-biphenyl-2-yl)-4-methyl-7,8-dihydroquinazolin-5(6H)-one], the IC50 is below 1 µM.

Take `COc1cccc(-c2cn(C)nc2C2CC(=O)c3c(C)nc(N)nc3C2)n1` (stereo not shown) [Compound 127, 2-amino-7-[4-(6-methoxy-pyridin-2-yl)-1-methyl-1H-pyrazol-3-yl]-4-methyl-7,8-dihydro-6H-quinazolin-5-one]: the IC50 is below 1 µM.

Regarding `Cc1nc(N)nc2c1C(=O)CC(c1ccccc1-c1cccc3[nH]ccc13)C2` (stereo not shown) [Compound 128, 2-amino-7-[2-(1H-indol-4-yl)phenyl]-4-methyl-7,8-dihydroquinazolin-5(6H)-one], the half-inhibitory concentration (IC50) was below 1 µM.

Regarding `Cc1nc(N)nc2c1C(=O)CC(c1ccccc1-c1cccc3cc[nH]c13)C2` (stereo not shown) [Compound 129, 2-amino-7-[2-(1H-indol-7-yl)phenyl]-4-methyl-7,8-dihydroquinazolin-5(6H)-one], the 50% inhibitory concentration (IC50) is below 1 µM.

Consider `COc1cccc(-c2cc(F)ccc2C2CC(=O)c3c(C)nc(N)nc3C2)n1` (stereo not shown) [Compound 130, 2-amino-7-[4-fluoro-2-(6-methoxy-pyridin-2-yl)-phenyl]-4-methyl-7,8-dihydro-6H-quinazolin-5-one], for which the IC50 is below 1 µM.

Consider `Cc1nc(N)nc2c1C(=O)CC(c1ccccc1-c1cccc3c1NC(=O)C3)C2` (stereo not shown) [Compound 131, 2-amino-4-methyl-7-[2-(2-oxo-2,3-dihydro-1H-indol-7-yl)phenyl]-7,8-dihydroquinazolin-5(6H)-one], for which the IC50 was 1 to 10 µM.

In the case of `COc1cccc(-c2cccc(OC)c2C2CC(=O)c3c(C)nc(N)nc3C2)n1` (stereo not shown) [Compound 132, 2-amino-7-[2-methoxy-6-(6-methoxy-pyridin-2-yl)-phenyl]-4-methyl-7,8-dihydro-6H-quinazolin-5-one], the IC50 was below 1 µM.

As to `Cc1nc(N)nc2c1C(=O)CC(c1ccccc1Oc1ccccc1)C2` (stereo not shown) [Compound 133, 2-amino-4-methyl-7-(2-phenoxyphenyl)-7,8-dihydroquinazolin-5(6H)-one], the IC50 was below 1 µM.

In the case of `Cc1ccccc1Oc1ccccc1C1CC(=O)c2c(C)nc(N)nc2C1` (stereo not shown) [Compound 134, 2-amino-4-methyl-7-[2-(2-methylphenoxy)phenyl]-7,8-dihydroquinazolin-5(6H)-one], the half-maximal inhibitory concentration (IC50) was below 1 µM.

Broadly, the IC50 is the concentration that gives 50% inhibition.

Source of the values: US20070027150A1 (priority 2005, published 2007).
